Where “and” joins values, the source holds several entries; their conditions need not be identical. Equal values may be shown once.
Settings: Coaxial cylinder method

CCCCC [pentane]
Settings | thermal conductivity
309.04 K, 260 kPa, Liquid | 0.109 W/m/K
309.04 K, 261 kPa, Liquid | 0.1092 W/m/K
309.04 K, 1000 kPa, Liquid | 0.1095 W/m/K
309.04 K, 2000 kPa, Liquid | 0.1101 W/m/K
309.04 K, 3012 kPa, Liquid | 0.1108 W/m/K
309.04 K, 4151 kPa, Liquid | 0.1118 W/m/K
309.04 K, 4297 kPa, Liquid | 0.1117 W/m/K
309.04 K, 5604 kPa, Liquid | 0.1123 W/m/K
309.04 K, 6001 kPa, Liquid | 0.1125 W/m/K
309.04 K, 7000 kPa, Liquid | 0.113 W/m/K
309.04 K, 8108 kPa, Liquid | 0.1137 W/m/K
309.04 K, 9011 kPa, Liquid | 0.1142 W/m/K
309.04 K, 10008 kPa, Liquid | 0.1154 W/m/K
309.04 K, 11054 kPa, Liquid | 0.1161 W/m/K
309.04 K, 12000 kPa, Liquid | 0.1167 W/m/K
309.04 K, 12504 kPa, Liquid | 0.1168 W/m/K
309.04 K, 13000 kPa, Liquid | 0.1171 W/m/K
309.04 K, 14742 kPa, Liquid | 0.1181 W/m/K
309.04 K, 19800 kPa, Liquid | 0.1207 W/m/K
309.04 K, 19908 kPa, Liquid | 0.1205 W/m/K
309.04 K, 20004 kPa, Liquid | 0.1206 W/m/K
309.04 K, 24000 kPa, Liquid | 0.1231 W/m/K
309.04 K, 25000 kPa, Liquid | 0.1233 W/m/K
309.04 K, 28000 kPa, Liquid | 0.1241 W/m/K
309.04 K, 29100 kPa, Liquid | 0.1253 W/m/K
309.04 K, 29300 kPa, Liquid | 0.1256 W/m/K
309.04 K, 34000 kPa, Liquid | 0.1281 W/m/K
309.04 K, 35000 kPa, Liquid | 0.1286 W/m/K
309.04 K, 38000 kPa, Liquid | 0.1298 W/m/K
309.04 K, 39100 kPa, Liquid | 0.1299 W/m/K
309.04 K, 39176 kPa, Liquid | 0.13 W/m/K
309.04 K, 39350 kPa, Liquid | 0.1304 W/m/K
309.04 K, 49940 kPa, Liquid | 0.1352 W/m/K
309.04 K, 50230 kPa, Liquid | 0.1353 W/m/K
309.04 K, 50800 kPa, Liquid | 0.1352 W/m/K
315.55 K, 100 kPa, Gas | 0.01635 W/m/K
331.2 K, 2097 kPa, Liquid | 0.1035 W/m/K
331.2 K, 3000 kPa, Liquid | 0.1041 W/m/K
331.2 K, 3500 kPa, Liquid | 0.1045 W/m/K
331.2 K, 4000 kPa, Liquid | 0.1046 W/m/K
331.2 K, 5000 kPa, Liquid | 0.1053 W/m/K
331.2 K, 6000 kPa, Liquid | 0.1061 W/m/K
331.2 K, 7000 kPa, Liquid | 0.1068 W/m/K
331.2 K, 8000 kPa, Liquid | 0.1069 W/m/K
331.2 K, 9000 kPa, Liquid | 0.1072 W/m/K
331.2 K, 9500 kPa, Liquid | 0.1077 W/m/K
331.2 K, 10000 kPa, Liquid | 0.1078 W/m/K
331.2 K, 11000 kPa, Liquid | 0.1085 W/m/K
331.2 K, 12000 kPa, Liquid | 0.109 W/m/K
331.2 K, 13000 kPa, Liquid | 0.1094 W/m/K
331.2 K, 15000 kPa, Liquid | 0.1109 W/m/K
331.2 K, 16000 kPa, Liquid | 0.1115 W/m/K
331.2 K, 17000 kPa, Liquid | 0.1122 W/m/K
331.2 K, 18000 kPa, Liquid | 0.1126 W/m/K
331.2 K, 19000 kPa, Liquid | 0.1131 W/m/K
331.2 K, 20000 kPa, Liquid | 0.1139 W/m/K
331.2 K, 21000 kPa, Liquid | 0.1141 W/m/K
331.2 K, 22000 kPa, Liquid | 0.1148 W/m/K
331.2 K, 24000 kPa, Liquid | 0.1158 W/m/K
331.2 K, 25482 kPa, Liquid | 0.1167 W/m/K
331.2 K, 26404 kPa, Liquid | 0.1172 W/m/K
331.2 K, 27000 kPa, Liquid | 0.1176 W/m/K
331.2 K, 30000 kPa, Liquid | 0.1188 W/m/K
331.2 K, 31040 kPa, Liquid | 0.1193 W/m/K
331.2 K, 31081 kPa, Liquid | 0.1193 W/m/K
331.2 K, 32500 kPa, Liquid | 0.1202 W/m/K
331.2 K, 33500 kPa, Liquid | 0.1209 W/m/K
331.2 K, 34477 kPa, Liquid | 0.1211 W/m/K
331.2 K, 35500 kPa, Liquid | 0.1216 W/m/K
331.2 K, 36500 kPa, Liquid | 0.1224 W/m/K
331.2 K, 37885 kPa, Liquid | 0.1229 W/m/K
331.2 K, 38500 kPa, Liquid | 0.1231 W/m/K
331.2 K, 39000 kPa, Liquid | 0.1237 W/m/K
331.2 K, 39500 kPa, Liquid | 0.1239 W/m/K
331.2 K, 40000 kPa, Liquid | 0.1241 W/m/K
331.2 K, 41000 kPa, Liquid | 0.1242 W/m/K
331.2 K, 42000 kPa, Liquid | 0.1246 W/m/K
331.2 K, 43500 kPa, Liquid | 0.1255 W/m/K
331.2 K, 44500 kPa, Liquid | 0.1261 W/m/K
331.2 K, 45500 kPa, Liquid | 0.1266 W/m/K
331.2 K, 47000 kPa, Liquid | 0.1272 W/m/K
331.2 K, 48000 kPa, Liquid | 0.1273 W/m/K
331.2 K, 49500 kPa, Liquid | 0.1283 W/m/K
331.2 K, 50000 kPa, Liquid | 0.1278 W/m/K
386 K, 5061 kPa, Liquid | 0.09007 W/m/K
386 K, 10175 kPa, Liquid | 0.09446 W/m/K
386 K, 18875 kPa, Liquid | 0.0996 W/m/K
386 K, 20275 kPa, Liquid | 0.1023 W/m/K
386 K, 30275 kPa, Liquid | 0.1082 W/m/K
386 K, 34475 kPa, Liquid | 0.1107 W/m/K
386 K, 40275 kPa, Liquid | 0.1122 W/m/K
386 K, 49975 kPa, Liquid | 0.1184 W/m/K
386 K, 53475 kPa, Liquid | 0.1203 W/m/K
387.83 K, 75 kPa, Gas | 0.02437 W/m/K
387.83 K, 100 kPa, Gas | 0.02484 W/m/K
399.6 K, 2900 kPa, Liquid | 0.08457 W/m/K
399.6 K, 3000 kPa, Liquid | 0.08493 W/m/K
399.6 K, 4000 kPa, Liquid | 0.08522 W/m/K
399.6 K, 4500 kPa, Liquid | 0.08602 W/m/K
399.6 K, 5000 kPa, Liquid | 0.0869 W/m/K
399.6 K, 6000 kPa, Liquid | 0.088 W/m/K
399.6 K, 7000 kPa, Liquid | 0.08901 W/m/K
399.6 K, 7500 kPa, Liquid | 0.08952 W/m/K
399.6 K, 8000 kPa, Liquid | 0.0899 W/m/K
399.6 K, 9500 kPa, Liquid | 0.09127 W/m/K
399.6 K, 10000 kPa, Liquid | 0.09171 W/m/K
399.6 K, 11000 kPa, Liquid | 0.09237 W/m/K
399.6 K, 12000 kPa, Liquid | 0.09323 W/m/K
399.6 K, 13000 kPa, Liquid | 0.09372 W/m/K
399.6 K, 14000 kPa, Liquid | 0.09464 W/m/K
399.6 K, 15000 kPa, Liquid | 0.09518 W/m/K
399.6 K, 16000 kPa, Liquid | 0.09601 W/m/K
399.6 K, 17000 kPa, Liquid | 0.09671 W/m/K
399.6 K, 18000 kPa, Liquid | 0.09742 W/m/K
399.6 K, 19000 kPa, Liquid | 0.09836 W/m/K
399.6 K, 20000 kPa, Liquid | 0.0989 W/m/K
399.6 K, 21000 kPa, Liquid | 0.09955 W/m/K
399.6 K, 22000 kPa, Liquid | 0.1001 W/m/K
399.6 K, 23500 kPa, Liquid | 0.1011 W/m/K
399.6 K, 25000 kPa, Liquid | 0.1022 W/m/K
399.6 K, 26000 kPa, Liquid | 0.1026 W/m/K
399.6 K, 27000 kPa, Liquid | 0.1031 W/m/K
399.6 K, 28000 kPa, Liquid | 0.1037 W/m/K
399.6 K, 29000 kPa, Liquid | 0.1047 W/m/K
399.6 K, 30000 kPa, Liquid | 0.1051 W/m/K
399.6 K, 31000 kPa, Liquid | 0.1056 W/m/K
399.6 K, 33000 kPa, Liquid | 0.1066 W/m/K
399.6 K, 34000 kPa, Liquid | 0.1071 W/m/K
399.6 K, 35000 kPa, Liquid | 0.1076 W/m/K
399.6 K, 35301 kPa, Liquid | 0.1079 W/m/K
421.85 K, 100 kPa, Gas | 0.02874 W/m/K and 0.02895 W/m/K
421.85 K, 1640 kPa, Liquid | 0.07566 W/m/K
421.85 K, 1650 kPa, Liquid | 0.07566 W/m/K
421.85 K, 1660 kPa, Liquid | 0.07566 W/m/K
421.85 K, 1680 kPa, Liquid | 0.07566 W/m/K
421.85 K, 1700 kPa, Liquid | 0.07566 W/m/K
421.85 K, 1710 kPa, Liquid | 0.07566 W/m/K
421.85 K, 1720 kPa, Liquid | 0.07566 W/m/K
421.85 K, 1730 kPa, Liquid | 0.07596 W/m/K
421.85 K, 1750 kPa, Liquid | 0.07566 W/m/K
421.85 K, 1764 kPa, Liquid | 0.07568 W/m/K
421.85 K, 1772 kPa, Liquid | 0.07584 W/m/K
421.85 K, 1910 kPa, Liquid | 0.07624 W/m/K
421.85 K, 1946 kPa, Liquid | 0.0762 W/m/K
421.85 K, 1954 kPa, Liquid | 0.07621 W/m/K
422.2 K, 2518 kPa, Liquid | 0.07714 W/m/K
422.2 K, 5041 kPa, Liquid | 0.08091 W/m/K
422.2 K, 10475 kPa, Liquid | 0.08676 W/m/K
422.2 K, 18675 kPa, Liquid | 0.09347 W/m/K
422.2 K, 18775 kPa, Liquid | 0.09348 W/m/K
422.2 K, 20475 kPa, Liquid | 0.09413 W/m/K
422.2 K, 30575 kPa, Liquid | 0.1002 W/m/K
422.2 K, 30675 kPa, Liquid | 0.1007 W/m/K
422.2 K, 40275 kPa, Liquid | 0.1061 W/m/K
422.2 K, 48075 kPa, Liquid | 0.1104 W/m/K
422.2 K, 52975 kPa, Liquid | 0.1123 W/m/K
425.73 K, 100 kPa, Gas | 0.02926 W/m/K
425.74 K, 1560 kPa, Gas | 0.0319 W/m/K
425.8 K, 100 kPa, Gas | 0.0294 W/m/K
425.82 K, 100 kPa, Gas | 0.02926 W/m/K
426.24 K, 100 kPa, Gas | 0.02935 W/m/K
426.25 K, 100 kPa, Gas | 0.02935 W/m/K
426.25 K, 1210 kPa, Gas | 0.0316 W/m/K
426.25 K, 1280 kPa, Gas | 0.03151 W/m/K

From the NIST ThermoML archive (doi:10.1016/j.fluid.2017.12.026)
